Experiment [1] concerns dermal fibroblasts of the reconstructed skin. As to the kind of experiment: Proliferation of fibroblasts in whole reconstructed skin (propidium iodide count). It counts as cell-based, human. The note with it: 5 mM, within 48 hours of treatment. From the text: Rhamnose was studied on a model of whole reconstructed skin in order to measure its anti-ageing efficacy on the dermal compartment.
Briefly, the model of reconstructed skin used is that described by Bell et al. (Bell E. et al., The reconstitution of living skin, J. Invest. Dermatol., 1983, July; 81): it includes a dermal equivalent on which is reconstructed a multistratified epidermis; the dermal equivalent is manufactured from acid-soluble collagen, culture medium containing serum and normal adult human fibroblasts. After 5 days of shrinkage, this equivalent is inoculated with keratinocytes and then cultured for 6 days in immersion and for 7 days in emersion in order to obtain a multistratified and differentiated epidermis having a horny layer.
The reconstructed skin is treated with 5 mM rhamnose for 2 days and 5 days in the culture medium; after the treatment, the reconstructed skins are included in Tissue Tek in order to produce frozen sections 7 μm thick with a cryostat. […] Three frozen sections are prepared at random on each reconstructed skin; on each section, two microscopic fields (25× objective lens) are analysed by fluorescence microscopy and photographed. The dermal fibroblasts are thus counted for each reconstructed skin on six images in total representing the six microscopic fields considered. […]

The subject of experiment [2] is keratinocytes (HaCat line). The experiment in a line: Proliferation of keratinocytes (Cyquant, Nile red, XTT markers). It counts as cell-based. The note with it: keratinocytes cultured in medium depleted in growth factors, vs untreated control. How it is done:
The keratinocytes (HaCat line) are cultured under two conditions: whole defined culture medium (standard condition) and culture medium deficient in growth factors. This deficient medium gives rise to a controlled delay in cell proliferation. Under these conditions, it is then possible to measure the effects of compounds capable of compensating for the deficiency in growth factors of the culture medium and thus of relaunching the cell multiplication and/or of stimulating cell metabolism.
The keratinocyte proliferation is measured by means of three markers on the same cell population: the level of DNA, which is proportional to the number of cells (Cyquant probe), the level of constituent polar lipids of cell membranes (Nile red probe) and the mitochondrial respiration, which reflects the general cell metabolism (XTT probe).
In general terms: Formazan colour is commonly taken as a measure of viable cells.

The next experiment has as its system type I procollagen. The experiment in a line: Synthesis of procollagen 1 in reconstructed skin (indirect immunofluorescence). The note with it: for procollagen 1 synthesis: reconstructed skin. The experiment is classed as cell-based, human. How it is done:
Conventional detection via indirect immunofluorescence of type I procollagen in the dermis of the reconstructed skin was also performed on other series of frozen sections (anti-procoll 1 antibody (MAB 1912 Millipore)+FTIC-coupled conjugate (112-095-068 Jackson Immunoresearch)). In order to obtain bearings within the cutaneous architecture during the microscopic examination of the sections, the cell nuclei of the keratinocytes and fibroblasts are localized by staining them with propidium iodide, as described above. Three frozen sections are prepared at random on each reconstructed skin and on each section, and two microscopic fields (25× objective lens) are analysed by fluorescence microscopy and photographed. The levels of fluorescence proportional to the amount of type I procollagen are compared between the control skin and the skin treated with rhamnose.

For the compound `C[C@H](O)[C@H](O)[C@@H](O)[C@@H](O)C=O` [rhamnose, Rhamnose], the “growth of the dermal fibroblasts” value in experiment [1] is “induces stimulation of growth”. Further, in experiment [2], the keratinocyte proliferation result is “activate keratinocyte proliferation”. Moreover, in the experiment on type I procollagen (1 mM for 120 hours), the “green fluorescence (proportional to amount of type I procollagen) vs control skin” value is “marked increase” and the “synthesis of type I procollagen by the fibroblasts” value was “greatly stimulated”. The “procollagen 1 synthesis” value in the experiment with type I procollagen (1 mM) is reported as “stimulation of procollagen 1 synthesis”. Further, the “procollagen 1 synthesis” value in the experiment on type I procollagen (5 mM) is recorded as “stimulation of procollagen 1 synthesis”.

For the origin of these results see patent US20100168041A1, “COMBINATION OF MONOSACCHARIDES AND DESQUAMATING AGENTS, AND USE THEREOF” (L'OREAL, priority 2008, published 2010).
